# Data from the supplement of paper PMC10307832.
# Assays:
# Assay in all cases: relative viability (nuclei count vs DMSO), 5 days (fraction); higher = more cells survive
# VE-821 = compound: CS(=O)(=O)c1ccc(-c2cnc(N)c(C(=O)Nc3ccccc3)n2)cc1 [VE-821]
# Method in brief: (§1)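 Cells of lung cancer lines were placed in 1536-well plates and kept overnight at 37 °C. Pinning then delivered five library-drug doses (not always all listed), spaced by √10, onto plates anchored with vehicle, and the cells were left 5 days without changing medium. One step fixed, permeabilised and stained them with Hoechst, and MetaXpress counted nuclei in 4× images. Viability, as a median over plates, is treated-well nuclei divided by vehicle-well nuclei, with acceptance only at control CV below 25% and at least one doubling.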
# Vismodegib = compound: CS(=O)(=O)c1ccc(C(=O)Nc2ccc(Cl)c(-c3ccccn3)c2)c(Cl)c1 [Vismodegib]
# Method in brief: as §1
# Ruxolitinib = compound: N#CC[C@H](C1CCCC1)n1cc(-c2ncnc3[nH]ccc23)cn1 [Ruxolitinib]
# Method in brief: as §1
# VE-821 + Foretinib = compound: CS(=O)(=O)c1ccc(-c2cnc(N)c(C(=O)Nc3ccccc3)n2)cc1 [VE-821] + COc1cc2c(Oc3ccc(NC(=O)C4(C(=O)Nc5ccc(F)cc5)CC4)cc3F)ccnc2cc1OCCCN1CCOCC1 [Foretinib] (partner 0.25 µM)
# Method in brief: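 Cells from lung cancer lines were seeded into 1536-well plates and, one day later, dosed by pin tool. Treatments were either a single drug or a fixed dose of an anchor drug with five library-drug doses (not always all listed) in √10 steps. After 5 days, nuclei were stained in a one-step fixation (final 0.05% Triton X-100, 1% formaldehyde, 1 ug/ml Hoechst) and counted on 4× images, and relative viability is the treated-to-vehicle nuclei ratio, as the median of duplicate plates.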
Cell Line,relative viability (VE-821; 0.08 µM),relative viability (VE-821; 0.253 µM),relative viability (VE-821; 0.8 µM),relative viability (VE-821; 2.53 µM),relative viability (VE-821; 8 µM),relative viability (Vismodegib; 0.08 µM),relative viability (Vismodegib; 0.253 µM),relative viability (Vismodegib; 0.8 µM),relative viability (Vismodegib; 2.53 µM),relative viability (Vismodegib; 8 µM),relative viability (Ruxolitinib; 0.08 µM),relative viability (Ruxolitinib; 0.253 µM),relative viability (Ruxolitinib; 0.8 µM),relative viability (Ruxolitinib; 2.53 µM),relative viability (Ruxolitinib; 8 µM),relative viability (VE-821 + Foretinib; first compound 0.08 µM),relative viability (VE-821 + Foretinib; first compound 0.253 µM),relative viability (VE-821 + Foretinib; first compound 0.8 µM),relative viability (VE-821 + Foretinib; first compound 2.53 µM),relative viability (VE-821 + Foretinib; first compound 8 µM)
NCI-H441,1.16,1.1,1.34,1.34,0.793,1.02,0.909,1.01,0.98,1.04,0.946,0.933,1.16,0.962,0.699,1.36,1.04,1.19,1.04,0.928
NCI-H1437,1.03,0.97,0.988,1.01,0.956,0.951,0.967,1.01,0.964,0.999,1.09,1.1,1.08,0.946,0.848,1.3,1.25,1.16,1.34,1.24
NCI-H1703,1.09,0.793,0.836,0.689,0.444,0.998,0.826,1.21,0.824,1.33,0.994,0.862,0.978,0.498,0.663,0.33,0.3,0.329,0.364,0.404
EPLC-272H,1.06,0.916,1.08,1.02,0.663,0.936,0.942,0.875,0.952,0.863,0.966,0.894,0.933,0.906,0.818,0.803,0.747,0.804,0.692,0.341
LOU-NH91,1.03,0.946,0.927,1.03,0.865,0.918,0.963,0.946,0.908,0.958,0.847,0.957,1.03,0.933,0.99,0.982,0.946,0.86,0.986,0.928
ABC-1,1.09,0.882,0.907,1.03,0.749,0.963,0.854,0.96,0.81,0.988,–,1.01,1.11,0.882,0.782,1.41,0.877,0.859,1.01,0.756
RERF-LC-KJ,0.986,0.916,0.878,0.923,0.786,1.03,0.967,1.03,0.973,1.04,0.969,0.933,1.06,1.01,0.965,0.861,0.868,0.793,0.767,0.698
NCI-H1975,1.01,0.845,0.811,0.795,0.739,0.901,0.925,1.03,1.02,1.01,0.893,0.92,0.973,0.83,0.649,0.977,0.89,–,0.82,0.709
NCI-H1299,1.02,0.971,0.987,0.997,0.941,1.04,0.973,1.02,1.03,1.02,1.04,1.01,1.01,0.974,0.866,1.1,1.08,1.04,1,1
SK-MES-1,1.03,0.955,0.905,0.933,0.809,0.964,0.997,1.01,0.986,1.04,1.04,0.967,1.02,0.846,0.725,0.99,0.989,0.655,1.02,0.89
NCI-H2170,0.972,0.932,1.01,0.966,0.642,1.03,0.959,1.01,0.955,0.993,1.05,0.975,1,0.924,0.841,1.01,0.972,0.952,0.958,0.798
NCI-H661,0.986,0.998,0.976,0.997,0.919,0.973,0.975,0.997,0.909,1.02,0.958,0.963,1.04,1.03,0.92,0.991,1.04,0.95,1.08,0.935
HOP-62,1.11,0.997,1.02,1.18,1.02,0.998,0.954,0.94,0.96,1,0.976,1.04,1.09,1.05,0.972,1.14,1.04,1.07,1.22,1.09
HCC-15,1.09,0.966,1.08,1.21,0.996,1.03,0.973,0.977,1.04,0.959,1.01,0.984,1.07,0.943,0.811,1.16,1.1,1.1,1.27,0.98
A-427,1.1,0.878,0.992,0.986,0.468,1,0.94,0.933,0.988,1.01,0.982,1.02,1.12,0.902,0.844,1.34,0.97,0.991,1.05,0.561
